In ChEMBL document CHEMBL1158877, “Sesquiterpenoids of the drimane class from a sponge of the genus Dysidea” (J Nat Prod, 1997):
The source made the active and inactive calls. No cut-off for these calls is given here.

Assays:
[1] = Inhibition of PLA2
[2] = tested on: Photobacterium leiognathi; assay: Antimicrobial activity against Photobacterium leiognathi at 10 ug/ml by paper disk method; assay type: functional
[3] = Inhibition of Na+/K+-ATPase
[4] = tested on: Photobacterium leiognathi; assay: Antimicrobial activity against Photobacterium leiognathi by bioluminescence; assay type: functional, organism-based

Activity [1]	Activity [3]	IC50 [4]	IC50 [3]	IC50 [1]	Structure (SMILES)	Activity [2]	Activity [4]	zone of inhibition at 10 µg/mL ([2]; read-out: IZ)
inactive	inactive	–	–	–	CC1(C)CCC[C@]2(C)/C(=C/O)C(=O)CC[C@@H]12	inactive	inactive	–
inactive	inactive	90 µM	–	–	CC(=O)OC[C@H]1[C@@H](OC(C)=O)CC[C@H]2C(C)(C)CCC[C@]12C	inactive	–	–
inactive	inactive	90 µM	–	–	CO[C@@H]1OC[C@H]2CC[C@H]3C(C)(C)CCC[C@]3(C)[C@H]21	inactive	–	–
inactive	inactive	90 µM	–	–	CC(=O)O[C@@H]1OC=C2CC[C@H]3C(C)(C)CCC[C@]3(C)[C@H]21	inactive	–	–
inactive	inactive	–	–	–	CC(=O)O[C@@H]1OC(=O)C2=CC[C@H]3C(C)(C)CCC[C@]3(C)[C@H]21	inactive	inactive	–
inactive	inactive	–	–	–	CC(=O)OC[C@H]1CC[C@H]2C(C)(C)CCC[C@]2(C)[C@H]1COC(C)=O	inactive	inactive	–
inactive	inactive	–	–	–	CO[C@@H]1O[C@H](O)[C@@]2(O)CC[C@H]3C(C)(C)CCC[C@]3(C)[C@@H]12	inactive	inactive	–
inactive	–	–	98 µM	–	CC(=O)O[C@@H]1OC(=O)C2=C1[C@@]1(C)CCCC(C)(C)[C@@H]1CC2	inactive	inactive	–
–	–	90 µM	45 µM	113 µM	CC1(C)CCC[C@]2(C)[C@H]3C(=O)OC[C@@H]3CC[C@@H]12	inactive	–	–
inactive	–	11.4 µM	82 µM	–	CC1(C)CCC[C@]2(C)[C@@H](C=O)C(C=O)=CC[C@@H]12 [POLYGODIAL]	–	–	8 mm
